# Target: T1, human GPR17 receptor (Homo sapiens, UniProt Q13304)
# T1 construct: host or cells: HEK-293
# Assay: Calcium mobilization functional assay (Fluo-8, FLIPR TETRA) in HEK-293 hGPR17 (Gα-q assay)
# Type: cell-based
# Conditions: antagonism of MDL29,951 (~EC80) induced Ca2+ signal; cell line (HEK-293 hGPR17 or HEK-293 Suchi5 hGPR17) not given
# Outline: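 Fluo-8-loaded HEK-293 hGPR17 cells (60 min dye loading, room temperature) were preincubated with compound for twenty minutes, then challenged with agonist MDL29,951 at ~EC80, 500 nM. Intracellular calcium release via Gα-q was recorded as FLIPR fluorescence for a further 2 minutes; compounds tested in duplicate.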
# T1 sequence (Q13304 whole entry): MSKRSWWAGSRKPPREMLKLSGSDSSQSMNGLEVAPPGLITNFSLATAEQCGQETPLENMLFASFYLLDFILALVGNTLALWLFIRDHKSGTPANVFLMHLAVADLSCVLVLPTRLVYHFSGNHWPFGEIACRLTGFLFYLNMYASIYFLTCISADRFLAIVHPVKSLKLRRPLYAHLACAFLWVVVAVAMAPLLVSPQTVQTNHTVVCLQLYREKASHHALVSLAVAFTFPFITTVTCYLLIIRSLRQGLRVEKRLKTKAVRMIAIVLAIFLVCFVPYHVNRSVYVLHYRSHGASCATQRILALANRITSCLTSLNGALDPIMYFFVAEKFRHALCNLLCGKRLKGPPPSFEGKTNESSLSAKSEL
row,Compound,IC50 [nM]
1,"O=S(=O)(Nc1cc(F)c(OC(F)F)cc1F)c1c[nH]c(-c2cccc(Br)n2)c1 [Cpd 516, 5-(6-bromopyridin-2-yl)-N-[4-(difluoromethoxy)-2,5-difluorophenyl]-1H-pyrrole-3-sulfonamide]",< 500
2,"O=S(=O)(Nc1cc(F)c(C(F)(F)F)cc1F)c1c[nH]c(-c2cccc3ccoc23)c1 [Cpd 517, 5-(1-benzofuran-7-yl)-N-[2,5-difluoro-4-(trifluoromethyl)phenyl]-1H-pyrrole-3-sulfonamide]",500 to 5000
3,"COc1cscc1-c1cc(S(=O)(=O)Nc2cc(F)c(C(F)(F)F)cc2F)c[nH]1 [Cpd 518, N-[2,5-difluoro-4-(trifluoromethyl)phenyl]-5-(4-methoxythiophen-3-yl)-1H-pyrrole-3-sulfonamide]",500 to 5000
4,"O=S(=O)(Nc1cc(F)c(C(F)(F)F)cc1F)c1c[nH]c(-c2cccc3c2OCC3)c1 [Cpd 519, N-[2,5-difluoro-4-(trifluoromethyl)phenyl]-5-(2,3-dihydro-1-benzofuran-7-yl)-1H-pyrrole-3-sulfonamide]",500 to 5000
5,"O=C1CCC(c2cc(S(=O)(=O)Nc3cc(F)c(C(F)(F)F)cc3F)c[nH]2)C1 (centres unmarked) [Cpd 520, N-(2,5-difluoro-4-(trifluoromethyl)phenyl)-5-(3-oxocyclopentyl)-1H-pyrrole-3-sulfonamide]",5000 to 50000
6,"CN(C)c1cccc(-c2cc(S(=O)(=O)Nc3ccc(C#N)cc3F)c[nH]2)c1 [Cpd 521, N-(4-cyano-2-fluorophenyl)-5-[3-(dimethylamino)phenyl]-1H-pyrrole-3-sulfonamide]",5000 to 50000
7,"N#Cc1cc(F)c(NS(=O)(=O)c2c[nH]c(-c3ccccc3F)c2)cc1Cl [Cpd 522, N-(5-chloro-4-cyano-2-fluorophenyl)-5-(2-fluorophenyl)-1H-pyrrole-3-sulfonamide]",< 500
8,"N#Cc1cc(F)c(NS(=O)(=O)c2c[nH]c(-c3cc(Cl)ccc3F)c2)cc1Cl [Cpd 523, N-(5-chloro-4-cyano-2-fluorophenyl)-5-(5-chloro-2-fluorophenyl)-1H-pyrrole-3-sulfonamide]",< 500
9,"N#Cc1cc(F)c(NS(=O)(=O)c2c[nH]c(-c3ccc(F)cc3)c2)cc1Cl [Cpd 524, N-(5-chloro-4-cyano-2-fluorophenyl)-5-(4-fluorophenyl)-1H-pyrrole-3-sulfonamide]",500 to 5000
10,"N#Cc1cc(F)c(NS(=O)(=O)c2c[nH]c(-c3ccc(F)cc3F)c2)cc1Cl [Cpd 525, N-(5-chloro-4-cyano-2-fluorophenyl)-5-(2,4-difluorophenyl)-1H-pyrrole-3-sulfonamide]",500 to 5000
11,"O=S(=O)(Nc1cc(F)c(OC(F)F)cc1F)c1c[nH]c(-c2ccccc2Cl)c1 [Cpd 526, 5-(2-chlorophenyl)-N-[4-(difluoromethoxy)-2,5-difluorophenyl]-1H-pyrrole-3-sulfonamide]",500 to 5000
12,"O=S(=O)(Nc1cc(F)c(Br)cc1F)c1c[nH]c(-c2cccc(Cl)n2)c1 [Cpd 527, N-(4-bromo-2,5-difluorophenyl)-5-(6-chloropyridin-2-yl)-1H-pyrrole-3-sulfonamide]",< 500
13,"O=S(=O)(Nc1cc(F)c(Br)cc1F)c1c[nH]c(-c2cccc(Br)n2)c1 [Cpd 528, N-(4-bromo-2,5-difluorophenyl)-5-(6-bromopyridin-2-yl)-1H-pyrrole-3-sulfonamide]",< 500
14,"CCc1cc(NS(=O)(=O)c2c[nH]c(-c3ccccc3)c2)c(F)cc1C#N [Cpd 529, N-(4-cyano-5-ethyl-2-fluorophenyl)-5-phenyl-1H-pyrrole-3-sulfonamide]",< 500
15,"COc1ccccc1-c1cc(S(=O)(=O)Nc2cc(F)c(OC(F)F)cc2F)c[nH]1 [Cpd 530, N-[4-(difluoromethoxy)-2,5-difluorophenyl]-5-(2-methoxyphenyl)-1H-pyrrole-3-sulfonamide]",< 500
16,"COc1c(F)cccc1-c1cc(S(=O)(=O)Nc2cc(F)c(OC(F)F)cc2F)c[nH]1 [Cpd 531, N-[4-(difluoromethoxy)-2,5-difluorophenyl]-5-(3-fluoro-2-methoxyphenyl)-1H-pyrrole-3-sulfonamide]",< 500
17,"COc1ccccc1-c1cc(S(=O)(=O)Nc2cc(F)c(Br)cc2F)c[nH]1 [Cpd 532, N-(4-bromo-2,5-difluorophenyl)-5-(2-methoxyphenyl)-1H-pyrrole-3-sulfonamide]",500 to 5000
18,"O=S(=O)(Nc1cc(F)c(Br)cc1F)c1c[nH]c(-c2ccccc2Cl)c1 [Cpd 533, N-(4-bromo-2,5-difluorophenyl)-5-(2-chlorophenyl)-1H-pyrrole-3-sulfonamide]",500 to 5000

# Other lines, results leading:
row,IC50 [nM],Compound
1,500 to 5000,"O=S(=O)(Nc1cc(F)c(Br)cc1F)c1c[nH]c(-c2cccc3cccnc23)c1 [Cpd 534, N-(4-bromo-2,5-difluorophenyl)-5-quinolin-8-yl-1H-pyrrole-3-sulfonamide]"
2,< 500,"N#Cc1ccc(NS(=O)(=O)c2c[nH]cc2Cc2ccc(F)c(F)c2)c(F)c1 [Cpd 535, N-(4-cyano-2-fluorophenyl)-4-[(3,4-difluorophenyl)methyl]-1H-pyrrole-3-sulfonamide]"
3,< 500,"COc1cc(Cc2c[nH]cc2S(=O)(=O)Nc2ccc(C#N)cc2F)ccc1F [Cpd 536, N-(4-cyano-2-fluorophenyl)-4-[(4-fluoro-3-methoxyphenyl)methyl]-1H-pyrrole-3-sulfonamide]"
4,500 to 5000,"O=S(=O)(Nc1cc(F)c(CO)cc1F)c1c[nH]c(-c2ccccc2)c1 [Cpd 537, N-[2,5-difluoro-4-(hydroxymethyl)phenyl]-5-phenyl-1H-pyrrole-3-sulfonamide]"
5,500 to 5000,"Cc1ncc(-c2cc(S(=O)(=O)Nc3cc(F)c(C(F)(F)F)cc3F)c[nH]2)s1 [Cpd 538, N-[2,5-difluoro-4-(trifluoromethyl)phenyl]-5-(2-methyl-1,3-thiazol-5-yl)-1H-pyrrole-3-sulfonamide]"
6,< 500,"COc1sccc1-c1cc(S(=O)(=O)Nc2cc(F)c(C(F)(F)F)cc2F)c[nH]1 [Cpd 539, N-[2,5-difluoro-4-(trifluoromethyl)phenyl]-5-(2-methoxythiophen-3-yl)-1H-pyrrole-3-sulfonamide]"
7,500 to 5000,"Cn1cc2cccc(-c3cc(S(=O)(=O)Nc4cc(F)c(C(F)(F)F)cc4F)c[nH]3)c2n1 [Cpd 540, N-[2,5-difluoro-4-(trifluoromethyl)phenyl]-5-(2-methylindazol-7-yl)-1H-pyrrole-3-sulfonamide]"
8,< 500,"N#Cc1cccc(-c2cc(S(=O)(=O)Nc3cc(F)c(Br)cc3F)c[nH]2)c1 [Cpd 541, N-(4-bromo-2,5-difluorophenyl)-5-(3-cyanophenyl)-1H-pyrrole-3-sulfonamide]"
9,< 500,"N#Cc1ccc(NS(=O)(=O)c2c[nH]c(-c3cccc(F)c3OC3CC3)c2)c(F)c1 [Cpd 542, N-(4-cyano-2-fluorophenyl)-5-(2-cyclopropyloxy-3-fluorophenyl)-1H-pyrrole-3-sulfonamide]"
10,< 500,"N#Cc1ccc(NS(=O)(=O)c2c[nH]c(-c3ncc(F)cc3F)c2)c(F)c1 [Cpd 543, N-(4-cyano-2-fluorophenyl)-5-(3,5-difluoropyridin-2-yl)-1H-pyrrole-3-sulfonamide]"
11,< 500,"COc1c(F)cccc1-c1cc(S(=O)(=O)Nc2cc(F)c(Br)cc2F)c[nH]1 [Cpd 544, N-(4-bromo-2,5-difluorophenyl)-5-(3-fluoro-2-methoxyphenyl)-1H-pyrrole-3-sulfonamide]"
